Experimental data taken from PubChem BioAssay AID278 (DTP/NCI, 2004).
Several values for one entry are separate records, joined by “and”; a condition that tells them apart may be missing. Identical values can stand only once. Records with an inconclusive call do not appear.

Test system: nude mice, A549 intrarenal xenograft, tumor weight change
Assay: NCI In Vivo Anticancer Drug Screen. Data for tumor model A549 Human Adenocarcinoma of Lung with characteristics of Type II Alveolar Epithelial cells (intrarenal inoculation) in NU/NU BALB/C (nude) mice
Conditions: endpoint: mean tumor weight change, schedule: Q04DX003 (ip), higher = larger tumour
Summary of the method: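 Mice bearing transplantable tumors were treated and survival or tumor size recorded. Values are given as treated-group measurement divided by vehicle-control measurement (T/C).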

[1] = dose: 50.0 mg/kg/injection, vehicle: saline with Tween-80
[2] = dose: 150.0 mg/kg/injection, vehicle: other
[3] = dose: 150.0 mg/kg/injection, vehicle: sodium bicarbonate
[4] = dose: 150.0 mg/kg/injection, vehicle: saline with Tween-80
[5] = dose: 300.0 mg/kg/injection, vehicle: saline with Tween-80
[6] = dose: 600.0 mg/kg/injection, vehicle: saline with Tween-80

For `COc1cccc2c1C(CO)N1C(C#N)C3CC(C(=O)O)C(C1C2)N3C` (configuration not stated), the T/C (dose: 3.75 mg/kg/injection, vehicle: saline) was 24 % of control, the T/C (dose: 6.25 mg/kg/injection, vehicle: saline) was 32 % of control and the T/C (dose: 7.5 mg/kg/injection, vehicle: saline with Tween-80) was 64 % of control. The T/C (dose: 7.5 mg/kg/injection, vehicle: saline) was 73 % of control, the T/C (dose: 12.5 mg/kg/injection, vehicle: saline) was 76 % of control and the T/C (dose: 15.0 mg/kg/injection, vehicle: saline with Tween-80) was 57 % of control. For the same molecule, the T/C (dose: 15.0 mg/kg/injection, vehicle: saline) was 59 % of control, the T/C (dose: 25.0 mg/kg/injection, vehicle: saline) was 33 % of control and the T/C (dose: 30.0 mg/kg/injection, vehicle: saline with Tween-80) was 59 % of control. The T/C (dose: 30.0 mg/kg/injection, vehicle: saline) was 39 % of control, the T/C (dose: 50.0 mg/kg/injection, vehicle: saline) was 52 % of control and the T/C (dose: 60.0 mg/kg/injection, vehicle: saline) was 17 % of control.
`Cc1ccc(C2=CSC3=NCCN23)cc1Cl` was tested, and the T/C (dose: 2.5 mg/kg/injection, vehicle: suspension in saline) was 88 % of control, the T/C (dose: 5.0 mg/kg/injection, vehicle: saline) was 119 % of control and the T/C (dose: 5.0 mg/kg/injection, vehicle: suspension in saline) was 60 % of control. The T/C (dose: 10.0 mg/kg/injection, vehicle: suspension in saline) was 44 % of control, the T/C (dose: 20.0 mg/kg/injection, vehicle: saline) was 104 % of control and the T/C (dose: 20.0 mg/kg/injection, vehicle: suspension in saline) was 102 % of control. For the same molecule, the T/C (dose: 40.0 mg/kg/injection, vehicle: saline) was 26 % of control.
For `Oc1c(Cl)cc(Cl)cc1C=NCCSc1ccc(Cl)cc1`, the T/C (dose: 150.0 mg/kg/injection, vehicle: Klucel (hydroxypropylcellulose) (HPC)) was 90 % of control, the T/C (dose: 300.0 mg/kg/injection, vehicle: Klucel (hydroxypropylcellulose) (HPC)) was 100 % of control and the T/C (dose: 600.0 mg/kg/injection, vehicle: Klucel (hydroxypropylcellulose) (HPC)) was 83 % of control.
For `O=C1C=C(N2CC2)C(=O)C(N2CC2)=C1N1CC1`, the T/C (dose: 100.0 micrograms/kg/injection, vehicle: saline) was 25 % of control and 29 % of control, the T/C (dose: 144.0 micrograms/kg/injection, vehicle: saline + alcohol) was -27 % of control and the T/C (dose: 240.0 micrograms/kg/injection, vehicle: saline + alcohol) was -14 % of control. For the same molecule, the T/C (dose: 400.0 micrograms/kg/injection, vehicle: saline) was 6 % of control.
With `COc1ccc(C(C)c2cc3c(cc2OC)OCO3)cc1` (configuration not stated) the T/C (dose: 12.5 mg/kg/injection, vehicle: saline with Tween-80) was 17 % of control, the T/C (dose: 25.0 mg/kg/injection, vehicle: saline with Tween-80) was 18 % of control and 43 % of control and the T/C [1] was 33 % of control.
With `COc1ccc2oc(-c3ccc(Cl)cc3)c(N3CCN(C)CC3)c2c1` the T/C (dose: 75.0 mg/kg/injection, vehicle: saline) was 21 % of control and the T/C (dose: 150.0 mg/kg/injection, vehicle: saline) was 24 % of control.
For `O=C(NC(Cc1ccc(I)cc1)C(=O)O)c1ccc(Br)cc1` (configuration not stated), the T/C (dose: 37.5 mg/kg/injection, vehicle: other) was 51 % of control, the T/C (dose: 37.5 mg/kg/injection, vehicle: sodium bicarbonate) was 78 % of control and the T/C (dose: 75.0 mg/kg/injection, vehicle: other) was 7 % of control. The T/C (dose: 75.0 mg/kg/injection, vehicle: sodium bicarbonate) was 103 % of control, the T/C [2] was 9 % of control and the T/C [3] was 83 % of control.
`Cc1ccc(/C=C/C(=O)/C=C/c2ccc(C)o2)o1` was tested, and the T/C (dose: 100.0 mg/kg/injection, vehicle: DMSO) was 123 % of control, the T/C (dose: 200.0 mg/kg/injection, vehicle: DMSO) was 73 % of control and the T/C (dose: 400.0 mg/kg/injection, vehicle: DMSO) was 78 % of control. For the same molecule, the T/C (dose: 800.0 mg/kg/injection, vehicle: DMSO) was 68 % of control.
With `Nc1cc2c(cc1Br)-c1c(C(=O)O)cccc1C2O` (configuration not stated) the T/C [3] was 74 % of control, the T/C (dose: 300.0 mg/kg/injection, vehicle: sodium bicarbonate) was 78 % of control and the T/C (dose: 600.0 mg/kg/injection, vehicle: sodium bicarbonate) was 68 % of control. For the same molecule, the T/C (dose: 1200.0 mg/kg/injection, vehicle: sodium bicarbonate) was 56 % of control.
With `NC(Cc1ccc(N(CCCl)Cc2ccccc2)cc1)C(=O)O` (configuration not stated) the T/C [1] was 74 % of control, the T/C (dose: 100.0 mg/kg/injection, vehicle: saline with Tween-80) was 32 % of control and the T/C (dose: 200.0 mg/kg/injection, vehicle: saline with Tween-80) was 38 % of control.
`CC1=CCCC2C1(C)CCC(C)C2(C)Cc1cc(O)ccc1O` (configuration not stated) was tested, and the T/C (dose: 100.0 mg/kg/injection, vehicle: Klucel (hydroxypropylcellulose) (HPC)) was 16 % of control.
In the case of `S=c1sc2ccccc2n1CN1CCOCC1`, the T/C [4] was 81 % of control, the T/C [5] was 172 % of control and the T/C [6] was 57 % of control.
In the case of `O=C(Nc1cccc(O)c1)C(Cl)=C(Cl)Cl`, the T/C (dose: 18.0 mg/kg/injection, vehicle: other) was 46 % of control, the T/C (dose: 25.0 mg/kg/injection, vehicle: DMSO) was 108 % of control and the T/C (dose: 30.0 mg/kg/injection, vehicle: other) was 50 % of control and 74 % of control. For the same molecule, the T/C (dose: 50.0 mg/kg/injection, vehicle: DMSO) was 18 % of control and the T/C (dose: 50.0 mg/kg/injection, vehicle: other) was 76 % of control.
For `C=C(CO)C(=O)OC1CC(=C)C2CC(O)C(=C)C2[C@H]2OC(=O)C(=C)C12` (some centres not stated), the T/C (dose: 2.36 mg/kg/injection, vehicle: saline + alcohol) was 64 % of control, the T/C (dose: 4.72 mg/kg/injection, vehicle: saline + alcohol) was 99 % of control and the T/C (dose: 8.75 mg/kg/injection, vehicle: saline + alcohol) was 86 % of control.
For `NC(=S)N/N=C/c1cc(=O)c2cc(Cl)ccc2o1`, the T/C (dose: 75.0 mg/kg/injection, vehicle: DMSO) was 66 % of control, the T/C [2] was 15 % of control and the T/C (dose: 300.0 mg/kg/injection, vehicle: DMSO) was 152 % of control. The T/C (dose: 300.0 mg/kg/injection, vehicle: other) was 29 % of control, the T/C (dose: 600.0 mg/kg/injection, vehicle: DMSO) was 150 % of control and the T/C (dose: 600.0 mg/kg/injection, vehicle: other) was 36 % of control.
For `COc1cccc2c1C(=O)c1c(O)c3c(c(O)c1C2=O)C[C@](O)(C(=O)CO)CC3OC1CC(N)C(OC2CCCCO2)C(C)O1` (some centres not stated), the T/C (dose: 1.88 mg/kg/injection, vehicle: water) was 35 % of control, the T/C (dose: 3.75 mg/kg/injection, vehicle: water) was 74 % of control and the T/C (dose: 7.5 mg/kg/injection, vehicle: water) was 28 % of control. The T/C (dose: 15.0 mg/kg/injection, vehicle: water) was 4 % of control.
For `CC(C)(C)c1ccc(C(=O)N2CCOC23CCCCC3)cc1`, the T/C [4] was 55 % of control, the T/C [5] was 28 % of control and the T/C [6] was 63 % of control. The T/C (dose: 1200.0 mg/kg/injection, vehicle: saline with Tween-80) was 42 % of control.
In the case of `CC#CCOCC(O)CCl` (configuration not stated), the T/C (dose: 100.0 mg/kg/injection, vehicle: saline) was 104 % of control, the T/C (dose: 200.0 mg/kg/injection, vehicle: saline) was 90 % of control and the T/C (dose: 400.0 mg/kg/injection, vehicle: saline) was 111 % of control.
